How the values were obtained:
MCF7 cells [1] = assay: Mitochondrial outer membrane potential assay (MOMP); assay type: cell-based, human; settings: MCF7, 10 mM, 24 hrs
Protocol: (§1) One of the key hallmarks of apoptosis is the loss of mitochondrial membrane potential. To investigate that aspect we did a MOMP assay which validates our Cell-APOPercentage assay. This assay was tested on three cell lines MCF7, MDA-MB-231 & MRC-5. The top right and bottom hand quadrants of each plot represents healthy (FL2-A) and apoptotic (FL1-A) cells respectively (see FIGS. 13 to 15).
(§2) From the results obtained from MTT (IC50 values) and Cell-APOPercentage assays it was quite evident that ˜10 mM HPβCD caused cellular growth inhibition through apoptosis in cancer cells and had little or no effect in normal cells. Therefore, we selected just 10 mM HPβCD going forward as the only working concentration for HPβCD treatment. 24 hrs time point was selected (HPβCD & 10 mM H2O2) because mitochondrial membrane potential loss is an early cellular event.

MDA-MB-231 cells [2] = assay: as above; assay type: cell-based, human; settings: MDA-MB-231, 10 mM, 24 hrs
Protocol: as §1, §2

MRC-5 cells = assay: as above; assay type: cell-based, human; settings: MRC-5, 10 mM HPβCD, 24 hrs
Protocol: as §1, §2

HEK-293 cells = assay: Caspase 3/7 assay; assay type: cell-based, human; settings: HEK-293, 10 mM HPβCD, 24 hrs
Protocol: (§3) The final step in apoptosis following the intrinsic pathway is the activation of executioner caspases like caspase 3 and caspase 7 […]. Therefore, to confirm that cell death was due to the mitochondrial mediated pathway of apoptosis a Caspase 3/7 assay was conducted. Caspases are activated in response to a myriad of cellular death stimuli and they dismantle the cell. Caspase 3 and caspase 7 contribute to the majority of proteolytic cleavage occurring in apoptosis. As a final step to confirm and validate apoptosis via the mitochondrial intrinsic pathway, the Caspase 3/7 assay was conducted on three cell lines: MCF7, MDA-MB-231 & HEK-293. HPβCD and positive (40 μM PL) were treated for 24 hrs. The percentage of dead/apoptotic cells are clearly indicated in specific corners of each quadrants in the above plots.

MCF7 cells [3] = assay: Caspase 3/7 assay; assay type: cell-based, human; settings: MCF7, 10 mM HPβCD
Protocol: as §3

MDA-MB-231 cells [4] = assay: Caspase 3/7 assay; assay type: cell-based, human; settings: MDA-MB-231, 10 mM HPβCD, 24 hrs
Protocol: as §3

MCF7 cells [5] = assay: Filipin cholesterol staining; assay type: cell-based, human
MCF7 cells [6] = assay: Mice xenograft, ER+ breast cancer; assay type: in vivo, Nude Mice, MF-1 strain
Protocol: Since the potency of HPβCD against breast cancer was established in our in vitro assays, a thorough investigation in a mice model was conducted (Nude Mice. MF-1 strain). MCF-7 and MDA-MB-231 cells were injected in 32 mice (16 for each cell type) and after tumour development, was treated with HPβCD (3000 mg/kg b.w.). Thrice a week dose treatment plan was followed throughout the study.
To examine if HPβCD can be used as a future anti-breast cancer drug, mice xenografts were prepared. MCF7 cells (5 million) cells were injected in 16 mice with weekly β-estradiol supplementation. The study for triple negative induced breast cancer (MDA-MB-231) is complete. Up to 4 million cells were injected in 16 mice. This was subdivided in three more groups namely: Late stage, intermediate stage and early stage estrogen negative cancer. 4 mice were grouped as untreated (not receiving HPβCD), 4 for treated (late stage), 3 for treated (intermediate stage) and 3 for treated (early stage).
The anticancer effect of HPβCD on estrogen positive MCF7 cells induced tumours in xenograft mice model was also tested. The study was not completed as only 4 out of 16 mice developed tumours. But the mice who developed tumour were treated with HPβCD and 9.6% tumour reduction was observed (FIGS. 49 and 50).

[7] = AST/ALT assay of mice serum; assay type: in vivo
Protocol: Post-euthanisation, the mice serum was analysed for AST/ALT ([…]) levels in order to observe if HPβCD treatment had any toxic effects on liver of treated mice (FIG. 37). The AST/ALT ratio gives an estimate of liver toxicity or damage. […] The AST/ALT ratio for all the early and intermediate groups was not different from the untreated group, was under the recommended ratio of 2 and the values were below the reference range (40 U/L) except for AST levels in the late group. In latter groups, the ratio of AST/ALT was 2.2 which was slightly above the recommended limit but was not found to be statistically different from the untreated group. […] In this regard review FIG. 37.

MCF7 cells [8] = assay: RT2 Profiler PCR Array Human Lipoprotein Signaling & Cholesterol Metabolism; assay type: cell-based; settings: MCF7, majority of genes
Excerpt: (§4) PCR (polymerase chain reaction) arrays were run to identify gene expression changes in cancer cells after treatment with HPβCD. The differentially expressed genes along with their significance for cancer, some genes were selected for further drug-protein interaction studies.
(§5) Results from RT^2 Profiler™ PCR Array Human Lipoprotein Signaling & Cholesterol Metabolism (MCF7 and MDA-MB-231) are shown in FIG. 38.

MDA-MB-231 cells [9] = assay: as above; assay type: cell-based
Excerpt: as §4, §5

MCF7 cells [10] = assay: RT2 Profiler PCR Array Human Breast cancer; assay type: cell-based
Excerpt: as §4

MDA-MB-231 cells [11] = assay: RT2 Profiler PCR Array Human Breast cancer; assay type: cell-based
Excerpt: as §4

MCF7 cells [12] = assay: Alexa Fluor lipid raft staining; assay type: cell-based, human
Protocol: (B) is positive and (C) is treated.

2-hydroxypropyl-β-cyclodextrin [HPβCD]
apoptotic population (loss of mitochondrial membrane potential) (MCF7 cells [1]): 92.1%
apoptotic cells / cell death (loss of mitochondrial membrane potential) (MDA-MB-231 cells [2]): 78.1%
apoptotic cells (MRC-5 cells): 12.8%
non-apoptotic/healthy population (MRC-5 cells): 98.2%
Total Live (caspase 3/7) (HEK-293 cells): 66.75%
total apoptosis compared to untreated (MCF7 cells [3]): almost two times more
Total Apoptotic (caspase 3/7) (MCF7 cells [3]; 24 hrs): 12.5%
Total Apoptotic (caspase 3/7) (MDA-MB-231 cells [4]): 48.75%
Filipin fluorescence compared to untreated (MCF7 cells [5]; MCF7, 10 mM HPβCD, 24 hrs, ImageJ): four times less fluorescence
cholesterol (Filipin staining) in treated vs untreated cells (MCF7 cells [5]; MCF7, FIG. 51): decreased cholesterol
average tumour size (MCF7 cells [6]; ER+ MCF7 mice, treated for 5 weeks): 5.3 mm^3
tumour outcome (MCF7 cells [6]; Mouse No. 29, 30 and 32, treated for 5 weeks): healed completely
tumour size (MCF7 cells [6]; Mouse No. 31, treated for 5 weeks): 21.28 mm^3
AST/ALT ratio ([7]; early and intermediate groups): < 2
ratio of AST/ALT ([7]; late group, mice serum post-euthanisation): 2.2
liver toxicity ([7]; mouse, in vivo, 3000 mg/kg): caused no toxicity
genes involved in cholesterol related pathways (MCF7 cells [8]): downregulated
ABCA1 gene expression (MDA-MB-231 cells [9]; MDA-MB-231, HPβCD treated): upregulation
genes involved in cholesterol related pathways (MDA-MB-231 cells [9]; MDA-MB-231, majority of genes): downregulated
ADAM23 gene expression (MCF7 cells [10]): downregulated by many folds
CTSD gene expression (MCF7 cells [10]): significantly downregulated
ADAM23 gene expression (MDA-MB-231 cells [11]): upregulated
Akt1 gene expression (MDA-MB-231 cells [11]): upregulated
CTSD gene expression (MDA-MB-231 cells [11]): upregulated
GATA3 gene expression (MDA-MB-231 cells [11]): downregulated
SFRP1 gene expression (MDA-MB-231 cells [11]): upregulated
lipid rafts (ALEXA FLUOR) in treated vs untreated cells (MCF7 cells [12]): decrease in lipid rafts

Reference: US20220096529A1, “2-HYDROXYPROPYL-BETA-CYCLODEXTRIN (HPBETACD) FOR USE IN THE TREATMENT OF BREAST CANCER” (UNIVERSITY OF THE WITWATERSRAND, JOHANNESBURG, priority 2019, published 2022)
